These results are taken from patent US11045519B2, “Arginine-rich polypeptide compositions and methods of using same” (UNM Rainforest Innovations, priority 2017, dated 2021).

Assay [1] deals with HPV16 PsVs. Description: Co-localization of HPV16 PsV with endosomal marker CD63 in HaCaT cells (confocal microscopy). Type of assay: cell-based. Particulars: 1 μM added 1 h after PsVs, further 7 h. The procedure:
FIG. 9. PolyR inhibits HPV16 L2 protein cleavage by furin and induces accumulation of internalized virus particles in late endosomal fraction. (A) Equal amount of HPV16 diluted in 50 μl furin assay buffer (1 mM CaCl2), 100 mM HEPES, 0.5% Triton X-100, 1 mM β-mercaptoethanol) was loaded into six tubes, and subsequently incubated for two hours at 30° C. without any inhibitor, in the presence of 1.3 μM furin inhibitor1 (Merck Millipore Corp., Burlington, Mass.), or 1 μM polyR. Samples were mixed with SDS-PAGE sample buffer and boiled before fractionation on 9% gel. Proteins were transferred onto PVDF membranes and after blocking, incubated with affinity-purified rabbit anti-HPV16 polyclonal antibody. Secondary donkey anti-rabbit horseradish peroxidase-coupled antibody was used for detection of HPV16 capsid proteins. (B) HaCaT cells grown on coverslips were incubated with HPV16 PsVs for one hour at 37° C. to initiate virus binding (and partial internalization) before adding 1 μM polyR and further incubated for seven hours. After the incubation, cells were fixed and stained for HPV16 and endogenous CD63, using primary anti-HPV16 rabbit polyclonal and anti-CD63 mouse monoclonal antibodies (Santa Cruz Biotechnology, Inc., Dallas, Tex.). […]

Assay [2] concerns HPV16 PsVs. Description: Mouse cervicovaginal HPV16 PsV infection model (luciferase in vivo imaging). Set-up: species or system BALB/c mice. The following applies: 2 μM in 3% CMC, intravaginal, cytobrush abrasion, imaging 48 h after PsV, n=3. From the text: FIG. 11. PolyR inhibits HPV16 infectivity in vivo. (A). Six-week-old to eight-week-old female BALB/c mice were exposed to HPV16 PsVs transducing Luciferase (5×10^8 infection units (IU)/animal). (B). Percent of in vivo infectivity represents % of infection calculated from luciferase readouts from panel A. Error bars represents SD n=3. Luciferase raw data (average radiance photons/s/cm^2) of polyR-untreated mice is considered as 100%.
Until recently, in vivo animal studies on infectivity of HPV were problematic, because productive papillomavirus infection is species-restricted and tissue-restricted, and traditional models use animal papillomaviruses in closely related or native host species. However, a recently developed mouse model of cervicovaginal infection using HPV16 PsVs has overcome such restrictions (Roberts et al., 2007. Nature Medicine 13:857-861). In the original study, 3% carboxymethylcellulose (CMC) was used to mimic the viscosity of a typical vaginal gel and determined that disruption of genital epithelium by chemical (Nonoxynol-9) or mechanical (using cytobrush) injury is crucial for efficient HPV PsV infection. Nonoxynol-9 (N-9) is a highly toxic strong non-ionic detergent that disturbs the normal architecture of animal and human genital epithelium. […] The average radiance per mouse was measured in photons/s/cm^2/sr for a set region (of equal dimensions) among mice.

On to poly-L-arginine [polyR], for which the “co-localization of HPV16 and CD63” value in the assay with HPV16 PsVs [1] is “significantly increased co-localization of HPV16 and CD63”. Moreover, in the assay with HPV16 PsVs [2], the “reduction of infection in vivo” value was found to be 50%.
